Legend:
[1] = system: primary adult cortical astrocytes; assay: Astrocyte scratch assay (injury model); assay type: cell-based, mouse; details: astrocytes from 6-month-old female mice, 48 hours after scratching
Experimental: FIGS. 5A-5C: 5c(i) reduces injury size. Primary adult cortical astrocytes from 6-month-old female mice were scratched to form the injury model and immediately after were incubated with 5c(i) for 48 hours (5A). Graph represents mean t SEM. Images represent the 5B) Vehicle and 5C) 5000 nM 5c(i) treated groups stained with Phalloidin. Linear regression was conducted to determine statistical significance. N=10. Scale bar=500 μm.
For neuronal cultures, the neuron enriched fraction was added onto plastic bottom (Greiner-Bio, 781091) plates and incubated inside a 5% C02 incubator at 37° C. for 2 days. Pharmaceutical agents were added at the time of cell plating. For astrocyte cultures, the glia fraction was added onto plastic bottom (Greiner-Bio, 781091) plates and incubated inside a 5% C02 incubator at 37° C. for 5 days for 100% confluency to be reached. Then, the astrocytes were scratched to form the scratch assay model and the pharmaceutical agents were added at the time of scratching. 10,000 cells were plated per well with 0.056 cm^2 growth area for both the neuronal and glia cultures.
Cell cultures were fixed with 4% paraformaldehyde (PFA, 15 min) after the completion of the respective in vitro experiment. […]

[2] = biological target: T1, TrkC (Homo sapiens, UniProt Q16288); assay: Cell-associated fluorescence saturation binding, TrkC-NIH/3T3 cells; details: 2.5 h, with and without 0.2 nM NT-3
T1 construct: expressed in transfected cells; host or cells: NIH/3T3 (TrkC-NIH/3T3)
T1 sequence (Q16288 32-839, species assumed): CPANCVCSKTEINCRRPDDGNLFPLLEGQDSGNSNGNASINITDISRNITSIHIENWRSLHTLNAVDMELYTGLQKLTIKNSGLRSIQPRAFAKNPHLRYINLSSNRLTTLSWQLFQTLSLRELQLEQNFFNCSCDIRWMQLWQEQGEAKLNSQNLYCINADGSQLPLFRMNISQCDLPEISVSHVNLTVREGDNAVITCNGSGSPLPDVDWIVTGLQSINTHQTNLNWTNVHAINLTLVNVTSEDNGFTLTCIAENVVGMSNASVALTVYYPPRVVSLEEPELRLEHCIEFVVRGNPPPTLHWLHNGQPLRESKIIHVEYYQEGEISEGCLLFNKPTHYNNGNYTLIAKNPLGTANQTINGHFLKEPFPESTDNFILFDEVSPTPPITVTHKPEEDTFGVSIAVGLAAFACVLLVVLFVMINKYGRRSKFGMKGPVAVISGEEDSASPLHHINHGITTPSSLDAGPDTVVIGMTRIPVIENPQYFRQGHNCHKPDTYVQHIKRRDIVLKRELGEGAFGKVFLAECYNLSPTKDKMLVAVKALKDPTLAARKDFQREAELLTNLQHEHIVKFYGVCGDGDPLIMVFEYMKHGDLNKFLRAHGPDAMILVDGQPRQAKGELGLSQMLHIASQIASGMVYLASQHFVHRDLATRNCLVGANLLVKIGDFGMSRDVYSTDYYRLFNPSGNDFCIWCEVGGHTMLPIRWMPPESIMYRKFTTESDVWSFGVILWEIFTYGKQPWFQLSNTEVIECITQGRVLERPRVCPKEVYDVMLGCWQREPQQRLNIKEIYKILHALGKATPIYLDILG
Experimental: FIG. 2: 5c(i) binds to TrkB and TrkC receptors. Transfected cell lines that are Trk positive cells (TrkB-HEK293 and TrkC-NIH/3T3) and non-transfected cell lines that are Trk negative cells (HEK293 and NIH/3T3) were seeded approximately 2,000 cells/well in a 96-well plate and incubated for 24 hours. The cells were treated with a serial dilution of compound (0, 10, 25, 50, 100, 200, 500, and 1000 nM) in serum-free media (SFM) with and without A) 0.6 nM of BDNF (TrkB-HEK293 and HEK293) and B) 0.2 nM of NT-3 (TrkC-NIH/3T3 and NIH/3T3) for 2.5 h. After that, the cells were washed with PBS once to remove unbound compounds and dissolved in 1% (w/v) aqueous sodium dodecyl sulfate. Cell-associated fluorescence was then determined by measuring the emission of the resulting solution upon λex (540/25 nm) and λem (620/40 nm) using Agilent BioTek Synergy H4 Hybrid Microplate Reader. Kd was calculated by GraphPad Prism 9 using Binding saturation (One site—Specific binding).
Transfected cell lines that are Trk positive cells (TrkA-HeLa, TrkB-HEK293, and TrkC-NIH/3T3) and non-transfected cell lines that are Trk negative cells (HeLa, HEK293, and NIH/3T3) were seeded at 2,000 cells/well in a 96-well plate (0.32 cm^2 growth area) and incubated inside a 5% CO2 incubator at 37° C. for 24 hours. […] The dissociation constant (Kd) was calculated using binding saturation (One site—Specific binding).

Substance: C-DIRG-C BODIPY® (fluorescent dye) [5c(i)]
- artificial wound closure [1]: closing at an expedited rate
- affinity for TrkC (Kd) [2]: low nanomolar affinity

Source: patent US20260042801A1, “COMPOSITIONS AND METHODS FOR DYE-BOUND CYCLIZED PEPTIDES FOR MEDICAL USE” (The Texas A&M University System, priority 2022, published 2026)
